The CheMixHub viscosity set
± gives the uncertainty stated by the source.

Assay: xn = mol fraction of the nth substance listed

CC1COC(=O)O1 (stereo unspecified) + CCCCO
298 K, 101.3 kPa
Settings	viscosity [mPa·s]
x1 = 0.0202	2.541 ± 0.018
x1 = 0.0403	2.511 ± 0.018
x1 = 0.0604	2.482 ± 0.017
x1 = 0.08	2.452 ± 0.017
x1 = 0.1006	2.423 ± 0.017
x1 = 0.2005	2.287 ± 0.016
x1 = 0.3006	2.167 ± 0.015
x1 = 0.4003	2.074 ± 0.014
x1 = 0.5	2.016 ± 0.014
x1 = 0.6001	1.999 ± 0.013
x1 = 0.7	2.031 ± 0.013
x1 = 0.8004	2.12 ± 0.014
x1 = 0.9	2.271 ± 0.015

CCOCCn1cc[n+](CCC#N)c1.O=S(=O)([N-]S(=O)(=O)C(F)(F)F)C(F)(F)F + CS(C)=O
Settings	viscosity [mPa·s]
303.15 K, 101.33 kPa, x1 = 0.7207	40.65 ± 1.2

CC1COC(=O)O1 (stereo unspecified) + CCO
298 K, 101.3 kPa
Settings	viscosity [mPa·s]
x1 = 0.021	1.1 ± 0.0069
x1 = 0.0404	1.116 ± 0.007
x1 = 0.06	1.131 ± 0.0071
x1 = 0.0806	1.147 ± 0.0072
x1 = 0.0987	1.161 ± 0.0073
x1 = 0.2008	1.237 ± 0.0077
x1 = 0.3003	1.312 ± 0.0082
x1 = 0.4003	1.397 ± 0.0088
x1 = 0.5002	1.497 ± 0.0094
x1 = 0.6002	1.619 ± 0.01
x1 = 0.7001	1.768 ± 0.011
x1 = 0.8	1.947 ± 0.012
x1 = 0.9005	2.165 ± 0.014

COc1ccccc1 + CCC(C)O
viscosity [mPa·s], 101.33 kPa
Settings	x1 = 0.0999	x1 = 0.2001	x1 = 0.3001	x1 = 0.3998	x1 = 0.5	x1 = 0.6001	x1 = 0.7	x1 = 0.8002	x1 = 0.9
303.15 K	1.759 ± 0.016	1.366 ± 0.012	1.172 ± 0.01	1.068 ± 0.01	1.001 ± 0.009	0.969 ± 0.009	0.951 ± 0.008	0.934 ± 0.008	0.918 ± 0.008
313.15 K	1.335 ± 0.012	1.068 ± 0.01	0.932 ± 0.009	0.862 ± 0.008	0.843 ± 0.008	0.831 ± 0.007	0.816 ± 0.007	0.803 ± 0.007	0.792 ± 0.007
323.15 K	1.023 ± 0.01	0.852 ± 0.008	0.769 ± 0.007	0.745 ± 0.007	0.739 ± 0.007	0.731 ± 0.007	0.723 ± 0.007	0.709 ± 0.006	0.698 ± 0.006

C1CCOC1 + Cc1ccccc1
303.15 K, 101.33 kPa
Settings	viscosity [mPa·s]
x1 = 0.1014	0.52 ± 0.005
x1 = 0.1984	0.518 ± 0.005
x1 = 0.3066	0.512 ± 0.005
x1 = 0.3662	0.51 ± 0.005
x1 = 0.4984	0.499 ± 0.005
x1 = 0.5997	0.489 ± 0.005
x1 = 0.702	0.479 ± 0.005
x1 = 0.7981	0.467 ± 0.004
x1 = 0.8997	0.453 ± 0.004

C1CCOC1 + C1COCCO1
Settings	viscosity [mPa·s]
298.15 K, 101 kPa, x2 = 0.5	0.6797 ± 0.018

CC(=O)Oc1ccccc1C(=O)O + CCC(C)O
viscosity [mPa·s], 101 kPa
Settings	x1 = 0.0007	x1 = 0.00094	x1 = 0.00118	x1 = 0.00141	x1 = 0.00165	x1 = 0.00189	x1 = 0.00236
293.15 K	3.623 ± 0.082	3.624 ± 0.082	3.626 ± 0.082	3.627 ± 0.082	3.628 ± 0.082	3.63 ± 0.082	3.632 ± 0.082
298.15 K	3.014 ± 0.069	3.015 ± 0.069	3.015 ± 0.069	3.016 ± 0.069	3.017 ± 0.069	3.018 ± 0.069	3.02 ± 0.069
303.15 K	2.525 ± 0.058	2.526 ± 0.058	2.527 ± 0.058	2.527 ± 0.058	2.528 ± 0.058	2.529 ± 0.059	2.531 ± 0.059
308.15 K	2.12 ± 0.05	2.121 ± 0.05	2.122 ± 0.05	2.123 ± 0.05	2.123 ± 0.05	2.124 ± 0.05	2.125 ± 0.05
310.15 K	1.974 ± 0.046	1.975 ± 0.046	1.976 ± 0.046	1.976 ± 0.047	1.977 ± 0.047	1.978 ± 0.047	1.979 ± 0.047
313.15 K	1.792 ± 0.043	1.793 ± 0.043	1.794 ± 0.043	1.795 ± 0.043	1.796 ± 0.043	1.797 ± 0.043	1.798 ± 0.043

CC1COC(=O)O1 (stereo unspecified) + C1COCCO1
303.15 K, 101.3 kPa
Settings	viscosity [mPa·s]
x1 = 0.1007	1.1 ± 0.018
x1 = 0.2012	1.184 ± 0.02
x1 = 0.3015	1.273 ± 0.021
x1 = 0.4017	1.369 ± 0.023
x1 = 0.5017	1.472 ± 0.024
x1 = 0.6015	1.582 ± 0.026
x1 = 0.7018	1.706 ± 0.028
x1 = 0.8014	1.844 ± 0.03
x1 = 0.9008	1.992 ± 0.032

CC1COC(=O)O1 (stereo unspecified) + c1ccccc1
viscosity [mPa·s]
Settings	298.15 K	303.15 K	308.15 K
101 kPa, x1 = 0.0191	0.6193 ± 0.025	–	0.5377 ± 0.022
101 kPa, x1 = 0.0416	0.6341 ± 0.025	–	0.5545 ± 0.023
101 kPa, x1 = 0.0585	0.6458 ± 0.026	–	0.5677 ± 0.023
101 kPa, x1 = 0.0771	0.6595 ± 0.026	–	0.5824 ± 0.024
101 kPa, x1 = 0.103	0.6758 ± 0.027	–	0.6037 ± 0.024
101 kPa, x1 = 0.1982	0.7426 ± 0.029	–	0.6908 ± 0.027
101 kPa, x1 = 0.2949	0.8478 ± 0.032	–	0.7937 ± 0.031
101 kPa, x1 = 0.3972	0.9876 ± 0.037	–	0.9193 ± 0.035
101 kPa, x1 = 0.4938	1.145 ± 0.042	–	1.055 ± 0.039
101 kPa, x1 = 0.5987	1.346 ± 0.049	–	1.221 ± 0.044
101 kPa, x1 = 0.7002	1.571 ± 0.056	–	1.402 ± 0.05
101 kPa, x1 = 0.7907	1.799 ± 0.063	–	1.582 ± 0.056
101 kPa, x1 = 0.9024	2.119 ± 0.073	–	1.826 ± 0.064
101.3 kPa, x1 = 0.1049	–	0.616 ± 0.011	–
101.3 kPa, x1 = 0.2087	–	0.7019 ± 0.012	–
101.3 kPa, x1 = 0.3114	–	0.798 ± 0.014	–
101.3 kPa, x1 = 0.4131	–	0.9074 ± 0.015	–
101.3 kPa, x1 = 0.5136	–	1.035 ± 0.017	–
101.3 kPa, x1 = 0.6131	–	1.194 ± 0.02	–
101.3 kPa, x1 = 0.7109	–	1.379 ± 0.023	–
101.3 kPa, x1 = 0.8083	–	1.599 ± 0.026	–
101.3 kPa, x1 = 0.9046	–	1.853 ± 0.03	–

COc1ccccc1 + CCCCCCCCCCCC
viscosity [mPa·s], 101.3 kPa
Settings	x1 = 0.1618	x1 = 0.2902	x1 = 0.3869	x1 = 0.4735	x1 = 0.5603	x1 = 0.7159	x1 = 0.843	x1 = 0.9414
293.15 K	1.324 ± 0.16	1.228 ± 0.15	1.17 ± 0.14	1.125 ± 0.14	1.092 ± 0.13	1.023 ± 0.12	–	–
303.15 K	1.123 ± 0.14	1.048 ± 0.13	–	0.964 ± 0.12	0.94 ± 0.11	0.903 ± 0.11	0.89 ± 0.11	0.902 ± 0.11
313.15 K	0.967 ± 0.12	0.908 ± 0.11	0.872 ± 0.11	0.843 ± 0.1	0.821 ± 0.099	0.791 ± 0.095	0.781 ± 0.094	0.79 ± 0.095
323.15 K	0.844 ± 0.1	0.797 ± 0.096	0.768 ± 0.092	0.744 ± 0.09	0.726 ± 0.087	0.701 ± 0.084	0.692 ± 0.083	0.699 ± 0.084

CC1COC(=O)O1 (stereo unspecified) + CC(C)O
viscosity [mPa·s], 101 kPa
Settings	x1 = 0.0614	x1 = 0.1283	x1 = 0.2015	x1 = 0.2818	x1 = 0.3706	x1 = 0.469	x1 = 0.5787	x1 = 0.7019	x1 = 0.8412
298.15 K	1.84 ± 0.02	1.74 ± 0.02	1.68 ± 0.02	1.64 ± 0.02	1.64 ± 0.02	1.65 ± 0.02	1.7 ± 0.02	1.8 ± 0.02	2.04 ± 0.02
303.15 K	1.6 ± 0.02	1.53 ± 0.01	1.46 ± 0.01	1.44 ± 0.01	1.45 ± 0.01	1.48 ± 0.01	1.54 ± 0.02	1.65 ± 0.02	1.85 ± 0.02
308.15 K	1.44 ± 0.01	1.37 ± 0.01	1.31 ± 0.01	1.29 ± 0.01	1.29 ± 0.01	1.32 ± 0.01	1.39 ± 0.01	1.49 ± 0.01	1.68 ± 0.02
